Assay results published in patent publication US11135234B2, “Effective aminoglycoside antibiotic for multidrug-resistant bacteria” (MICROBIAL CHEMISTRY RESEARCH FOUNDATION, priority 2015, dated 2021).
Values after ≈ are worked out from the molar mass of the structure shown.

Tests used:
S. aureus RN4220 = assay: MIC, agar plate dilution method, S. aureus RN4220; format: cell-based, Staphylococcus aureus; settings: for MIC: Staphylococcus aureus, RN4220, S. aureus RN4220, Sensitive bacterium, read-out: minimal inhibitory concentration (MIC); for minimal inhibitory concentration (MIC): S. aureus RN4220, Sensitive bacterium
How it was run: (§1)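 Minimal inhibitory concentration (μg/mL) was determined by agar plate dilution following the Japan Society of Chemotherapy method.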

S. aureus RN4220/pMS520 = assay: MIC, agar plate dilution method, S. aureus RN4220/pMS520; format: cell-based, Staphylococcus aureus; settings: for MIC: Staphylococcus aureus, MRSA, read-out: minimal inhibitory concentration (MIC), S. aureus RN4220/pMS520, MRSA; for minimal inhibitory concentration (MIC): S. aureus RN4220/pMS520, MRSA
How it was run: as §1

S. aureus MF490 = assay: MIC, agar plate dilution method, S. aureus MF490; format: cell-based, Staphylococcus aureus; settings: for MIC: Staphylococcus aureus, MRSA, read-out: minimal inhibitory concentration (MIC); for minimal inhibitory concentration (MIC): S. aureus MF490, MRSA
How it was run: as §1

E. faecium ATCC19434 = assay: MIC, agar plate dilution method, E. faecium ATCC19434; format: cell-based, Enterococcus faecium; settings: for MIC: Enterococcus faecium, ATCC19434, E. faecium ATCC19434, read-out: minimal inhibitory concentration (MIC); for minimal inhibitory concentration (MIC): E. faecium ATCC19434
How it was run: as §1

E. coli JM109/pMW218 = assay: MIC, agar plate dilution method, E. coli JM109/pMW218; format: cell-based, Escherichia coli; settings: for MIC: Escherichia coli, JM109/PMW218, E. coli JM109/pMW218, Sensitive bacterium, read-out: minimal inhibitory concentration (MIC); for minimal inhibitory concentration (MIC): E. coli JM109/pMW218, Sensitive bacterium
How it was run: as §1

[1] = system: K. pneumoniae ATCC BAA-1705; assay: MIC, agar plate dilution method, K. pneumoniae ATCC BAA-1705; format: cell-based, Klebsiella pneumoniae; settings: for MIC: Klebsiella pneumoniae, ATCCBAA1705, K. pneumoniae ATCC BAA-1705, KPC-producing strain, read-out: minimal inhibitory concentration (MIC); for minimal inhibitory concentration (MIC): K. pneumoniae ATCC BAA-1705, KPC-producing strain
How it was run: as §1

[2] = system: K. pneumoniae ATCC BAA-2146; assay: MIC, agar plate dilution method, K. pneumoniae ATCC BAA-2146; format: cell-based, Klebsiella pneumoniae; settings: for MIC: Klebsiella pneumoniae, ATCCBAA2146, K. pneumoniae ATCC BAA-2146, NDM-producing strain, read-out: minimal inhibitory concentration (MIC); for minimal inhibitory concentration (MIC): K. pneumoniae ATCC BAA-2146, NDM-producing strain
How it was run: as §1

[3] = system: A. baumannii ATCC BAA-1710; assay: MIC, agar plate dilution method, A. baumannii ATCC BAA-1710; format: cell-based, Acinetobacter baumannii; settings: for MIC: Acinetobacter baumannii, ATCCBAA1710, A. baumannii ATCC BAA-1710, MDRA, read-out: minimal inhibitory concentration (MIC); for minimal inhibitory concentration (MIC): A. baumannii ATCC BAA-1710, MDRA
How it was run: as §1

S. marcescens TH-0447 = assay: MIC, agar plate dilution method, S. marcescens TH-0447; format: cell-based, Serratia marcescens; settings: for MIC: Serratia marcescens, TH0447, S. marcescens TH-0447, AMK-resistant, read-out: minimal inhibitory concentration (MIC); for minimal inhibitory concentration (MIC): S. marcescens TH-0447, AMK-resistant
How it was run: as §1

S. marcescens GN6944 = assay: MIC, agar plate dilution method, S. marcescens GN6944; format: cell-based, Serratia marcescens; settings: S. marcescens GN6944, GM-resistant; for MIC: Serratia marcescens, read-out: minimal inhibitory concentration (MIC)
How it was run: as §1

P. aeruginosa PAO1 = assay: MIC, agar plate dilution method, P. aeruginosa PAO1; format: cell-based, Pseudomonas aeruginosa; settings: for MIC: Pseudomonas aeruginosa, PAO1, P. aeruginosa PAO1, Sensitive bacterium, read-out: minimal inhibitory concentration (MIC); for minimal inhibitory concentration (MIC): P. aeruginosa PAO1, Sensitive bacterium
How it was run: as §1

P. aeruginosa PAO1/GN315 = assay: MIC, agar plate dilution method, P. aeruginosa PAO1/GN315; format: cell-based, Pseudomonas aeruginosa; settings: for MIC: Pseudomonas aeruginosa, read-out: minimal inhibitory concentration (MIC), P. aeruginosa PAO1/GN315, AMK-resistant; for minimal inhibitory concentration (MIC): P. aeruginosa PAO1/GN315, AMK-resistant
How it was run: as §1

P. aeruginosa MSC17707 = assay: MIC, agar plate dilution method, P. aeruginosa MSC17707; format: cell-based, Pseudomonas aeruginosa; settings: for MIC: Pseudomonas aeruginosa, MSC17707, P. aeruginosa MSC17707, AMK-resistant, read-out: minimal inhibitory concentration (MIC); for minimal inhibitory concentration (MIC): P. aeruginosa MSC17707, AMK-resistant
How it was run: as §1

P. aeruginosa MSC01035 = assay: MIC, agar plate dilution method, P. aeruginosa MSC01035; format: cell-based, Pseudomonas aeruginosa; settings: P. aeruginosa MSC01035, ABK-resistant; for MIC: Pseudomonas aeruginosa, read-out: minimal inhibitory concentration (MIC)
How it was run: as §1

Compound	MIC (S. aureus RN4220)	MIC (S. aureus RN4220/pMS520)	MIC (S. aureus MF490)	MIC (E. faecium ATCC19434)	MIC (E. coli JM109/pMW218)	MIC [1]	MIC [2]	MIC [3]	MIC (S. marcescens TH-0447)	MIC (S. marcescens GN6944)	MIC (P. aeruginosa PAO1)	MIC (P. aeruginosa PAO1/GN315)	MIC (P. aeruginosa MSC17707)	MIC (P. aeruginosa MSC01035)	minimal inhibitory concentration (MIC) (S. aureus RN4220)	minimal inhibitory concentration (MIC) (S. aureus RN4220/pMS520)	minimal inhibitory concentration (MIC) (S. aureus MF490)	minimal inhibitory concentration (MIC) (E. faecium ATCC19434)	minimal inhibitory concentration (MIC) (E. coli JM109/pMW218)	minimal inhibitory concentration (MIC) [1]	further results
NCC[C@H](O)C(=O)N[C@@H]1C[C@H](N)[C@@H](O[C@H]2O[C@H](CN)[C@@H](O)[C@H](O)[C@H]2O)[C@H](O)[C@H]1O[C@H]1O[C@H](CO)[C@@H](O)[C@H](N)[C@H]1O [AMK, amikacin, reference compound]	2 µg/mL (≈ 3.42 µM)	64 µg/mL (≈ 109 µM)	> 64 µg/mL	32 µg/mL (≈ 54.6 µM)	0.5 µg/mL (≈ 0.854 µM)	32 µg/mL (≈ 54.6 µM)	> 64 µg/mL	64 µg/mL (≈ 109 µM)	> 64 µg/mL	8 µg/mL (≈ 13.7 µM)	2 µg/mL (≈ 3.42 µM)	64 µg/mL (≈ 109 µM)	32 µg/mL (≈ 54.6 µM)	> 64 µg/mL							
CNC1C(O[C@H]2OC(CO)[C@@H](NC(CN)CN)[C@H](O)C2O)O[C@H]2CC(N)[C@@H](O[C@H]3CC(O)[C@H](N)CC3N)OC2C1O (stereo partly shown) [Compound S1-d, 4″-N-(1,3-diaminopropan-2-yl)-5-deoxyapramycin]	1 µg/mL (≈ 1.68 µM)	1 µg/mL (≈ 1.68 µM)	4 µg/mL (≈ 6.71 µM)	16 µg/mL (≈ 26.9 µM)	1 µg/mL (≈ 1.68 µM)	1 µg/mL (≈ 1.68 µM)	1 µg/mL (≈ 1.68 µM)	8 µg/mL (≈ 13.4 µM)	8 µg/mL (≈ 13.4 µM)	4 µg/mL (≈ 6.71 µM)	2 µg/mL (≈ 3.36 µM)	4 µg/mL (≈ 6.71 µM)	4 µg/mL (≈ 6.71 µM)	4 µg/mL (≈ 6.71 µM)							
CNC1C(O[C@H]2OC(CO)[C@@H](NC(=O)[C@@H](N)CO)[C@H](O)C2O)O[C@H]2CC(N)[C@@H](O[C@@H]3C(N)C[C@@H](N)C(O)[C@H]3O)OC2C1O (stereo partly drawn) [Compound V1-e, 4″-N-(L-seryl)apramycin]	8 µg/mL (≈ 12.8 µM)	8 µg/mL (≈ 12.8 µM)	32 µg/mL (≈ 51.1 µM)	64 µg/mL (≈ 102 µM)	2 µg/mL (≈ 3.19 µM)	4 µg/mL (≈ 6.38 µM)	2 µg/mL (≈ 3.19 µM)	16 µg/mL (≈ 25.5 µM)	16 µg/mL (≈ 25.5 µM)	8 µg/mL (≈ 12.8 µM)	8 µg/mL (≈ 12.8 µM)	8 µg/mL (≈ 12.8 µM)	8 µg/mL (≈ 12.8 µM)	8 µg/mL (≈ 12.8 µM)							
CNC1C(OC2OC(CO)C(NC(=O)C(N)CO)C(O)C2O)OC2CC(N)C(OC3C(N)CC(N)C(O)C3O)OC2C1O [Compound V1-l, 5-epi-4″-N-(L-seryl)apramycin]															4 µg/mL (≈ 6.38 µM)	4 µg/mL (≈ 6.38 µM)	8 µg/mL (≈ 12.8 µM)	32 µg/mL (≈ 51.1 µM)	1 µg/mL (≈ 1.6 µM)	1 µg/mL (≈ 1.6 µM)	minimal inhibitory concentration (MIC) [2]: 1 µg/mL (≈ 1.6 µM); minimal inhibitory concentration (MIC) [3]: 8 µg/mL (≈ 12.8 µM); minimal inhibitory concentration (MIC) (S. marcescens TH-0447): 8 µg/mL (≈ 12.8 µM); minimal inhibitory concentration (MIC) (S. marcescens GN6944): 8 µg/mL (≈ 12.8 µM); minimal inhibitory concentration (MIC) (P. aeruginosa PAO1): 4 µg/mL (≈ 6.38 µM); minimal inhibitory concentration (MIC) (P. aeruginosa PAO1/GN315): 4 µg/mL (≈ 6.38 µM); minimal inhibitory concentration (MIC) (P. aeruginosa MSC17707): 4 µg/mL (≈ 6.38 µM); minimal inhibitory concentration (MIC) (P. aeruginosa MSC01035): 8 µg/mL (≈ 12.8 µM)
4″-N-(trans-1,4-4-aminocyclohexyl)apramycin [Compound A4-g]															4 µg/mL	4 µg/mL	16 µg/mL	32 µg/mL	2 µg/mL	2 µg/mL	minimal inhibitory concentration (MIC) [2]: 2 µg/mL; minimal inhibitory concentration (MIC) [3]: 32 µg/mL; minimal inhibitory concentration (MIC) (S. marcescens TH-0447): 16 µg/mL; minimal inhibitory concentration (MIC) (S. marcescens GN6944): 16 µg/mL; minimal inhibitory concentration (MIC) (P. aeruginosa PAO1): 16 µg/mL; minimal inhibitory concentration (MIC) (P. aeruginosa PAO1/GN315): 16 µg/mL; minimal inhibitory concentration (MIC) (P. aeruginosa MSC17707): 32 µg/mL; minimal inhibitory concentration (MIC) (P. aeruginosa MSC01035): 32 µg/mL
